ChEMBL document CHEMBL2346659, “Anti-adipogenic diarylheptanoids from Alnus hirsuta f. sibirica on 3T3-L1 cells” (Bioorg Med Chem Lett, 2013)
Calls of active or inactive are those of the source. The calls are words filed in the database; no cut-off is given here.

Assays:
3T3-L1 [1] = assay: Inhibition of differentiation of mouse 3T3L1 cells assessed as reduction of lipid accumulation after 8 days by using Oil Red O staining by spectrophotometry relative to control; format: functional, cell-based
3T3-L1 [2] = assay: Inhibition of differentiation of mouse 3T3L1 cells assessed as lipid accumulation at 100 uM after 8 days by using Oil Red O staining by spectrophotometry relative to control; format: functional
3T3-L1 [3] = assay: Inhibition of differentiation of mouse 3T3L1 cells assessed as lipid accumulation at 50 uM after 8 days by using Oil Red O staining by spectrophotometry relative to control; format: functional
3T3-L1 [4] = assay: Inhibition of differentiation of mouse 3T3L1 cells assessed as lipid accumulation at 10 uM after 8 days by using Oil Red O staining by spectrophotometry relative to control; format: functional
3T3-L1 [5] = assay: Inhibition of differentiation of mouse 3T3L1 cells assessed as lipid accumulation at 100 uM after 8 days by using Oil Red O staining by spectrophotometry relative to control in presence of troglitazone; format: functional; parameters: scale not given: the % may be the effect or the level left
3T3-L1 [6] = assay: Antiadipogenic activity in mouse 3T3L1 cells assessed as inhibition of C/EBPalpha expression at 10 to 50 uM after 8 days by Western blot analysis; format: functional, cell-based
3T3-L1 [7] = assay: Antiadipogenic activity in mouse 3T3L1 cells assessed as inhibition of PPAR-gamma expression at 10 to 50 uM after 8 days by Western blot analysis; format: functional, cell-based
3T3-L1 [8] = assay: Cytotoxicity against mouse 3T3L1 cells at 100 uM; format: cell-based; settings: 3t3-l1, 100 µM
3T3-L1 [9] = assay: Induction of differentiation of mouse 3T3L1 cells assessed as lipid accumulation at 10 uM after 8 days by using Oil Red O staining by spectrophotometry relative to control; format: cell-based; settings: 3t3-l1, 192 h

SMILES | inhibition (3T3-L1 [1]) | Lipid accumulation (% of control) (3T3-L1 [2]) [%] | Lipid accumulation (% of control) (3T3-L1 [3]) [%] | Lipid accumulation relative to control (3T3-L1 [4]) [%] | Activity (3T3-L1 [5]) [%] | inhibition (3T3-L1 [6]) | inhibition (3T3-L1 [7]) | Activity (3T3-L1 [8]) | Activity (3T3-L1 [9]) [%]
O=C(CCc1ccc(O)cc1)C[C@@H](O)CCc1ccc(O)c(O)c1 | Dose-dependent effect | 57.6 | 70.5 | 77.3 |  |  |  |  | 
O=C(/C=C/CCc1ccc(O)c(O)c1)CCc1ccc(O)c(O)c1 [DEHYDROHIRSUTANONOL] | Dose-dependent effect | 38.6 | 45.7 | 86.1 |  |  |  |  | 
OC[C@H]1O[C@@H](O[C@H](CCCCc2ccc(O)cc2)CCc2ccc(O)cc2)[C@H](O)[C@@H](O)[C@@H]1O |  | 98.1 | 103.1 | 76 |  |  |  |  | 
O=C(/C=C/CCc1ccc(O)c(O)c1)/C=C/c1ccc(O)c(O)c1 | Dose-dependent effect | 36.5 | 66.5 | 86.5 |  |  |  |  | 
O=C(CCc1ccc(O)cc1)C[C@H](CCc1ccc(O)cc1)O[C@@H]1OC[C@@H](O)[C@H](O)[C@H]1O | Dose-dependent effect | 14.4 | 28.9 | 81.7 | 20.8 | Active | Active |  | 
Oc1ccc(CCCC[C@@H](O)CCc2ccc(O)c(O)c2)cc1O |  | 90 | 86.4 | 84.6 |  |  |  |  | 
O=C(/C=C/C=C/c1ccc(O)c(O)c1)CCc1ccc(O)c(O)c1 |  | 103 | 108.9 | 104.4 |  |  |  |  | 
O=C(O[C@@H]1Cc2c(O)cc(O)cc2O[C@@H]1c1cc(O)c(O)c(O)c1)c1cc(O)c(O)c(O)c1 [EPIGALOCATECHIN GALLATE] |  | 54.5 | 81.9 | 94.9 |  |  |  |  | 
Oc1ccc(CC[C@@H](O)C[C@H](O)CCc2ccc(O)cc2)cc1 [(+)-HANNOKINOL] |  |  | 61.2 | 90.2 |  |  |  | Toxic | 
O=C(/C=C/c1ccc(O)c(O)c1)C[C@@H](O)CCc1ccc(O)cc1 | Dose-dependent effect | 58.8 | 81.8 | 92.6 |  |  |  |  | 
O=C(CCc1ccc(O)c(O)c1)C[C@@H](O)CCc1ccc(O)c(O)c1 [HIRSUTANONOL] | Dose-dependent effect | 59.9 | 72.6 | 83.9 |  |  |  |  | 
Cc1c(C)c2c(c(C)c1O)CCC(C)(COc1ccc(CC3SC(=O)NC3=O)cc1)O2 (stereo not drawn) [TROGLITAZONE] |  |  |  |  |  |  |  |  | 107.1
